Experimental data taken from patent US20260355274A1 (Onkure, Inc., priority 2022, published 2026).

Key:
Assay type in all cases: biochemical
HDAC 1 = HDAC 1 (Homo sapiens, UniProt Q13547); experiment: enzymatic inhibition of HDAC 1; details: HDAC 1, Class I
Source text: (§1) The mammalian HDACs can be divided into four classes depending on their sequence homology, sub-cellular distribution and catalytic activity. Class I, Il and IV HDACs have a Zn^2+ cofactor in the catalytic site. Class III HDACs contain sirtuins 1-7 and are NAD^+-dependent. Class I (HDACs 1, 2, 3 and 8) share the same homology as Rpd3 and are preliminarily distributed in the nucleus of normal cells. Class II HDACs can be subdivided into class IIa HDACs and class Ilb HDACs. Class IIa enzymes (HDAC 4, 5, 7 and 9) shuttle between the nucleus and cytoplasm and are located in specific tissues such as the brain, heart, and muscle. Class IIb (HDACs 6 and 10) are chiefly located in the cytoplasm.

HDAC 2 = HDAC 2 (Homo sapiens, UniProt Q92769); experiment: enzymatic inhibition of HDAC 2; details: HDAC 2, Class I
Sequence of HDAC 2 (Q92769 whole entry): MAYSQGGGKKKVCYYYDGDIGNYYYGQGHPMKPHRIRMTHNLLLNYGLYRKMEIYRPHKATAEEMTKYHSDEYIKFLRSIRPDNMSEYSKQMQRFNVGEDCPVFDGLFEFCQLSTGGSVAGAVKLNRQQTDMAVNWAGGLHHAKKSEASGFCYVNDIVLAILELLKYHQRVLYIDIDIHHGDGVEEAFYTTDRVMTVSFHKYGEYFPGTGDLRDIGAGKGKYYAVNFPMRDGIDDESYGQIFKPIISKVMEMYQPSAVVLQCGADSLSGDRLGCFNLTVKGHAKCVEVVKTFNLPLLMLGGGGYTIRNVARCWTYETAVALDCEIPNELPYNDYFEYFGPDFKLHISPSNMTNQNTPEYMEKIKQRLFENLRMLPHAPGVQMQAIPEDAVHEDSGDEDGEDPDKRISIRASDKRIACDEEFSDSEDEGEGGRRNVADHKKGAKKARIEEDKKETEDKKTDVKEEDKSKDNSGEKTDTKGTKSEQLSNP
Source text: as §1

HDAC 3 = HDAC 3 (Homo sapiens, UniProt O15379); experiment: enzymatic inhibition of HDAC 3; details: HDAC 3, Class I
Source text: as §1

HDAC 8 = HDAC 8 (Homo sapiens, UniProt Q9BY41); experiment: enzymatic inhibition of HDAC 8; details: HDAC 8, Class I; read-out: IC50
Sequence of HDAC 8 (Q9BY41 whole entry): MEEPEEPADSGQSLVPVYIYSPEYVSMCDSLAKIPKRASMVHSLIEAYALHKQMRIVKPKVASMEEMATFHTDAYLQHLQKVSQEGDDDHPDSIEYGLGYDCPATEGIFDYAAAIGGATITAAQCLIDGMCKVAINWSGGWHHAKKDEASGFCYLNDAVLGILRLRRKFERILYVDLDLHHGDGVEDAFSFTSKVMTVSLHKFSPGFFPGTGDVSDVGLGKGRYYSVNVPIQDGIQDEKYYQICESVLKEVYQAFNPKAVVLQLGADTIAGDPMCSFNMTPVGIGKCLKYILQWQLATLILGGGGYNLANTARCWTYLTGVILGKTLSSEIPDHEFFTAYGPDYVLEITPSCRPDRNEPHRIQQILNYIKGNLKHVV
Source text: as §1

HDAC 4 = HDAC 4 (Homo sapiens, UniProt P56524); experiment: enzymatic inhibition of HDAC 4; details: HDAC 4, Class IIa; read-out: IC50
Sequence of HDAC 4 (P56524 whole entry): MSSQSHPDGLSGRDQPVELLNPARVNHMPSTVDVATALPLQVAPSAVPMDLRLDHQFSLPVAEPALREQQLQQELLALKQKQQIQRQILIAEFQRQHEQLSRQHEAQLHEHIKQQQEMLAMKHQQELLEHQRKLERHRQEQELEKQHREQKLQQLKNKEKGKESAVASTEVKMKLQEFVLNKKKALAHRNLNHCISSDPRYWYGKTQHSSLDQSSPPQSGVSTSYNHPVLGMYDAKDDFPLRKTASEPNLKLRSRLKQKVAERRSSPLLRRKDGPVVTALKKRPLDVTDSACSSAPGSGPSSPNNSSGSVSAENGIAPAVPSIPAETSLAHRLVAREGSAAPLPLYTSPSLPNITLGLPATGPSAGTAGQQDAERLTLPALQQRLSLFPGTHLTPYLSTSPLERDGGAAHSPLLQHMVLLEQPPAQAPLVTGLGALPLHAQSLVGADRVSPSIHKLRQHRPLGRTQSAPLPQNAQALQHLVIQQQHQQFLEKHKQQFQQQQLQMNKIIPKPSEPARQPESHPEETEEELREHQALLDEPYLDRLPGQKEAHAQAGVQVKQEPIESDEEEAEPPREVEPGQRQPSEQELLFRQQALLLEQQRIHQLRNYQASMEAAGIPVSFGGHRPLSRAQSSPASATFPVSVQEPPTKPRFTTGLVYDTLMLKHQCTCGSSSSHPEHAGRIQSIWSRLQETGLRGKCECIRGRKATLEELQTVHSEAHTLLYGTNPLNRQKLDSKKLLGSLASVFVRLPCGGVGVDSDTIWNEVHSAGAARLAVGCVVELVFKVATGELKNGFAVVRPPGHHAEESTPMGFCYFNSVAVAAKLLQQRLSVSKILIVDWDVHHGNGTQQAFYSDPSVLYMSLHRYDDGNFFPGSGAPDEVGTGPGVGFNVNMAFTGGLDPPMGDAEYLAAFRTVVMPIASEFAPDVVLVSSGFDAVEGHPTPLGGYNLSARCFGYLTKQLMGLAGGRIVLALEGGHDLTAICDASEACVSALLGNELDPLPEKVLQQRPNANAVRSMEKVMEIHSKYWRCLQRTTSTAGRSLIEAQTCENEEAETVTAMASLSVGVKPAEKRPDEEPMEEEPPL
Source text: as §1

HDAC 5 = HDAC 5 (Homo sapiens, UniProt Q9UQL6); experiment: enzymatic inhibition of HDAC 5; details: HDAC 5, Class IIa; read-out: IC50
Source text: as §1

HDAC 7 = HDAC 7 (Homo sapiens, UniProt Q8WUI4); experiment: enzymatic inhibition of HDAC 7; details: HDAC 7, Class IIa; read-out: IC50
Source text: as §1

HDAC 9 = HDAC 9 (Homo sapiens, UniProt Q9UKV0); experiment: enzymatic inhibition of HDAC 9; details: HDAC 9, Class IIa; read-out: IC50
Source text: as §1

HDAC 6 = HDAC 6 (Homo sapiens, UniProt Q9UBN7); experiment: enzymatic inhibition of HDAC 6; details: HDAC 6, Class IIb; read-out: IC50
Sequence of HDAC 6 (Q9UBN7 whole entry): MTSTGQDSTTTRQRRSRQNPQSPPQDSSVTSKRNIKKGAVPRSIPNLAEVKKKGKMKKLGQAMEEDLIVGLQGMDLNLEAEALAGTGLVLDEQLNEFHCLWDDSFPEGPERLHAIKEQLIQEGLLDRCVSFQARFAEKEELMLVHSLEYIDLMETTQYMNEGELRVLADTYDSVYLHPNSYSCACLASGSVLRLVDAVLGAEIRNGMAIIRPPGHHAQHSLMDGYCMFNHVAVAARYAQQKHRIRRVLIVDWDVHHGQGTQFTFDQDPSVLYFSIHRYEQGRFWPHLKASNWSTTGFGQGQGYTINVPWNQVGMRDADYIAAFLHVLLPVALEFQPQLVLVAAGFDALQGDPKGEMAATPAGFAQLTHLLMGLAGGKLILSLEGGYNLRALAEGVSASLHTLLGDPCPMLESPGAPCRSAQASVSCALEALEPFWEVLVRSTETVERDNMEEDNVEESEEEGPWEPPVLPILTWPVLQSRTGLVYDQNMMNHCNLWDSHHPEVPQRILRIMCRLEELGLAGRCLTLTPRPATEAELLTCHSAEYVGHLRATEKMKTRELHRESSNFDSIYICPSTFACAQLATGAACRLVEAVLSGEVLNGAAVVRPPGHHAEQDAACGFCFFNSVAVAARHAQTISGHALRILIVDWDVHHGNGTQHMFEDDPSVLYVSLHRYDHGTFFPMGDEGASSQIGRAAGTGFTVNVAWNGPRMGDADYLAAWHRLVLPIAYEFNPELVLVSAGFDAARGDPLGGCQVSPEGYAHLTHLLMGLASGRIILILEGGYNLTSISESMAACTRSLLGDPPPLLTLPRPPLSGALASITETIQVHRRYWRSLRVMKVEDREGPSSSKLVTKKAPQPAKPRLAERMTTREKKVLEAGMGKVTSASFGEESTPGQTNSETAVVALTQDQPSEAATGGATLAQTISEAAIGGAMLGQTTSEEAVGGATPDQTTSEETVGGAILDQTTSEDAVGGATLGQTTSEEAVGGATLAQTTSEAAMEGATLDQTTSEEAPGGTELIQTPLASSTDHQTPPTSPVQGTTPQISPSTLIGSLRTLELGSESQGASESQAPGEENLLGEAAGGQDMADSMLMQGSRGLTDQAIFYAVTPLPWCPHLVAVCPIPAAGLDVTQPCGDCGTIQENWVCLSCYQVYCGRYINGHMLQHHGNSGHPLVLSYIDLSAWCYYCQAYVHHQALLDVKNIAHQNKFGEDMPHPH
Source text: as §1

HDAC 10 = HDAC 10 (Homo sapiens, UniProt Q969S8); experiment: enzymatic inhibition of HDAC 10; details: HDAC 10, Class IIb
Sequence of HDAC 10 (Q969S8 whole entry): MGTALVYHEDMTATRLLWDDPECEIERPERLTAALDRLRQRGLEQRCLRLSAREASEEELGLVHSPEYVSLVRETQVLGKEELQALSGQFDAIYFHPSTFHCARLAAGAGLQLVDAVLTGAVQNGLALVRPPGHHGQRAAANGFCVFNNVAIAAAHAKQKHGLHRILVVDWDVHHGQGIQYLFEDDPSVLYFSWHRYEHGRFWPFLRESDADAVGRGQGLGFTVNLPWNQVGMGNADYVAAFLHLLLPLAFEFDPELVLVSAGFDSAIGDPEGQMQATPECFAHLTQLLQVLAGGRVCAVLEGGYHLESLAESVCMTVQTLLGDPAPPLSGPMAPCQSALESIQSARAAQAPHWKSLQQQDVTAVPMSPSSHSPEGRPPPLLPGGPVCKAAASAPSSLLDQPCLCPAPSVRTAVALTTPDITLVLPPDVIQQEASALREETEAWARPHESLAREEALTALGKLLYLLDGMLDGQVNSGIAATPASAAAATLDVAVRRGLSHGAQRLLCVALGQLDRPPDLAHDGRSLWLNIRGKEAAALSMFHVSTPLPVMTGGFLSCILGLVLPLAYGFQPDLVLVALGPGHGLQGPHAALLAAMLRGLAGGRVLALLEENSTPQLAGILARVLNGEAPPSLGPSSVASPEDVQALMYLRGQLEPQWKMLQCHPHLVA
Source text: as §1

HDAC 11 = HDAC 11 (Homo sapiens, UniProt Q96DB2); experiment: enzymatic inhibition of HDAC 11; details: HDAC 11, Class IV
Sequence of HDAC 11 (Q96DB2 whole entry): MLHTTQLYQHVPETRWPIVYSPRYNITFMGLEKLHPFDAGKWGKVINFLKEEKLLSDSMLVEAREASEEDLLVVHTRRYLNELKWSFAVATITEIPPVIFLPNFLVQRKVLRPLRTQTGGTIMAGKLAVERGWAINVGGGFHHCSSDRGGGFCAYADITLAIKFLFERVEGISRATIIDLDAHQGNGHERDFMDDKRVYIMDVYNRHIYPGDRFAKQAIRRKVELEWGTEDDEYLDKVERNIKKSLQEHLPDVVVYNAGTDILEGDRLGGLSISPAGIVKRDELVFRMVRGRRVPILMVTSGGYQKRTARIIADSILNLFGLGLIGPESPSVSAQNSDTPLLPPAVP
Source text: as §1

Class I HDAC = experiment: enzymatic inhibition of Class I HDACs (summary); details: in words
Source text: as §1

Sequence of HDAC 1 (Q13547 whole entry): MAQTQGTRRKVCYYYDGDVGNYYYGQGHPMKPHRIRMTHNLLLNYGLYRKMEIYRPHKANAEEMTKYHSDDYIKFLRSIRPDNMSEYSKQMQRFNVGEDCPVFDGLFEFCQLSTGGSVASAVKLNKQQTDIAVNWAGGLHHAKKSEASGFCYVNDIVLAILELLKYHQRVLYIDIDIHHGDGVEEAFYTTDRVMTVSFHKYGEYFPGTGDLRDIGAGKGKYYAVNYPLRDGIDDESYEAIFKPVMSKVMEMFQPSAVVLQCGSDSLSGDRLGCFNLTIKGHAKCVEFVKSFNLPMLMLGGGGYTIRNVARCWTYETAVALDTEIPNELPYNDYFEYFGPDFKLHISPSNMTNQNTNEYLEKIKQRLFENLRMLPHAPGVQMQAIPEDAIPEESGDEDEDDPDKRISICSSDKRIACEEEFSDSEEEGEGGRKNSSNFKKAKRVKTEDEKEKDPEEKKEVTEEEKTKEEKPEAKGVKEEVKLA

SMILES: CC(C)[C@@H]1NC(=O)C(C)(C)NC(=O)c2csc(n2)CNC(=O)C[C@@H](/C=C/CCS)OC1=O [OKI-006]
- IC50 (HDAC 1): 1.2 nM
- IC50 (HDAC 2): 2.4 nM
- IC50 (HDAC 3): 2 nM
- IC50 (HDAC 8): 49 nM
- IC50 (HDAC 4): > 1000 nM
- IC50 (HDAC 5): > 1000 nM
- IC50 (HDAC 7): > 1000 nM
- IC50 (HDAC 9): > 1000 nM
- IC50 (HDAC 6): 47 nM
- IC50 (HDAC 10): 2.8 nM
- IC50 (HDAC 11): 2.3 nM
- potency / selectivity for Class I HDAC (Class I HDAC): high potency for Class I HDAC inhibitors
